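Tested at 5 concentrations; 48 h exposure; 96-well plates; endpoints linearly interpolated, else capped at highest concentration. GI50: concentration for 50% inhibition of growth.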 The source made the active and inactive calls. Rule as the data show it: active = GI50 up to about 1.1 µM and inactive = higher.
What was measured:
Assay in all cases: NCI tumour cell line growth inhibition, 48 h
786-0 = tested on: 786-0
A498 = tested on: A498
A549 = tested on: A549
ACHN = tested on: ACHN
BT-549 = tested on: BT-549
DU-145 = tested on: DU-145
EKVX = tested on: EKVX
HCC 2998 = tested on: HCC 2998
HCT-15 = tested on: HCT-15
HOP-62 = tested on: HOP-62
HOP-92 = tested on: HOP-92
IGROV-1 = tested on: IGROV-1
K562 = tested on: K562
MDA-MB-435 = tested on: MDA-MB-435
MOLT-4 = tested on: MOLT-4
NCI-H460 = tested on: NCI-H460
NCI-H522 = tested on: NCI-H522
NCI/ADR-RES = tested on: NCI/ADR-RES
OVCAR-4 = tested on: OVCAR-4
OVCAR-5 = tested on: OVCAR-5
OVCAR-8 = tested on: OVCAR-8
RPMI-8226 = tested on: RPMI-8226
SF-268 = tested on: SF-268
SF-295 = tested on: SF-295
SF-539 = tested on: SF-539
SK-OV-3 = tested on: SK-OV-3
SN12C = tested on: SN12C
SNB-19 = tested on: SNB-19
T47D = tested on: T47D
U-251 = tested on: U-251
UACC-257 = tested on: UACC-257
UO-31 = tested on: UO-31
CAKI-1 = tested on: CAKI-1
CCRF-CEM = tested on: CCRF-CEM
COLO 205 = tested on: COLO 205
HCT-116 = tested on: HCT-116
HL-60 = tested on: HL-60
HT-29 = tested on: HT-29
Hs-578T = tested on: Hs-578T
KM12 = tested on: KM12
LOX IMVI = tested on: LOX IMVI
M14 = tested on: M14
MCF7 = tested on: MCF7
MDA-MB-231 = tested on: MDA-MB-231
MDA-N = tested on: MDA-N
NCI-H226 = tested on: NCI-H226
NCI-H23 = tested on: NCI-H23
OVCAR-3 = tested on: OVCAR-3
PC-3 = tested on: PC-3
RXF 393 = tested on: RXF 393
SK-MEL-28 = tested on: SK-MEL-28
SK-MEL-2 = tested on: SK-MEL-2
SK-MEL-5 = tested on: SK-MEL-5
SNB-75 = tested on: SNB-75
SW-620 = tested on: SW-620
TK-10 = tested on: TK-10
UACC-62 = tested on: UACC-62
Malme-3M = tested on: Malme-3M

SMILES: CSc1ccc2c(cc1=O)[C@@H](NC(=O)c1ccc(N)cc1)CCc1cc(O)c(O)c(O)c1-2
- GI50 (786-0): 16.4 µM (inactive)
- GI50 (A498): 46.2 µM (inactive)
- GI50 (A549): 23.6 µM (inactive)
- GI50 (ACHN): 21.2 µM (inactive)
- GI50 (BT-549): 16 µM (inactive)
- GI50 (DU-145): 49.1 µM (inactive)
- GI50 (EKVX): 30.1 µM (inactive)
- GI50 (HCC 2998): 14.5 µM (inactive)
- GI50 (HCT-15): 17.9 µM
- GI50 (HOP-62): 15.1 µM (inactive)
- GI50 (HOP-92): 41.4 µM (inactive)
- GI50 (IGROV-1): 25 µM (inactive)
- GI50 (K562): 9.66 µM (inactive)
- GI50 (MDA-MB-435): 7.85 µM (inactive)
- GI50 (MOLT-4): 22.6 µM (inactive)
- GI50 (NCI-H460): 12 µM (inactive)
- GI50 (NCI-H522): 7.67 µM (inactive)
- GI50 (NCI/ADR-RES): 28.5 µM (inactive)
- GI50 (OVCAR-4): 22 µM (inactive)
- GI50 (OVCAR-5): 23.4 µM (inactive)
- GI50 (OVCAR-8): 22 µM (inactive)
- GI50 (RPMI-8226): 22.3 µM (inactive)
- GI50 (SF-268): 13.6 µM (inactive)
- GI50 (SF-295): 15.7 µM (inactive)
- GI50 (SF-539): 3.85 µM (inactive)
- GI50 (SK-OV-3): > 100 µM (inactive)
- GI50 (SN12C): 27.9 µM (inactive)
- GI50 (SNB-19): 25.1 µM (inactive)
- GI50 (T47D): 66.1 µM (inactive)
- GI50 (U-251): 25.4 µM (inactive)
- GI50 (UACC-257): 18.3 µM (inactive)
- GI50 (UO-31): 26 µM (inactive)

SMILES: C[n+]1c(-c2ccccc2)cc2/c(=C\c3ccc([N+](=O)[O-])cc3)c3ccccc3n21
- GI50 (786-0): 1.52 µM (inactive)
- GI50 (A498): 11 µM (inactive)
- GI50 (A549): 2.15 µM (inactive)
- GI50 (ACHN): 3.1 µM (inactive)
- GI50 (BT-549): 0.281 µM (active)
- GI50 (CAKI-1): 15.8 µM (inactive)
- GI50 (CCRF-CEM): 0.692 µM (active)
- GI50 (COLO 205): 0.532 µM (active)
- GI50 (DU-145): 1.74 µM (inactive)
- GI50 (EKVX): 7.29 µM (inactive)
- GI50 (HCC 2998): 11.3 µM (inactive)
- GI50 (HCT-116): 1.02 µM (active)
- GI50 (HCT-15): 14.3 µM
- GI50 (HL-60): 0.764 µM (active)
- GI50 (HOP-62): 4.84 µM (inactive)
- GI50 (HOP-92): 1.66 µM (inactive)
- GI50 (HT-29): 0.957 µM (active)
- GI50 (Hs-578T): 1.29 µM (inactive)
- GI50 (IGROV-1): 1.39 µM (inactive)
- GI50 (KM12): 3.29 µM (inactive)
- GI50 (LOX IMVI): 2.63 µM (inactive)
- GI50 (M14): 5.24 µM (inactive)
- GI50 (MCF7): 2.1 µM (inactive)
- GI50 (MDA-MB-231): 3.24 µM (inactive)
- GI50 (MDA-MB-435): 2.54 µM (inactive)
- GI50 (MDA-N): 2.37 µM (inactive)
- GI50 (MOLT-4): 0.966 µM (active)
- GI50 (NCI-H226): 2.65 µM (inactive)
- GI50 (NCI-H23): 2.51 µM (inactive)
- GI50 (NCI-H460): 1.45 µM (inactive)
- GI50 (NCI-H522): 0.385 µM (active)
- GI50 (NCI/ADR-RES): > 100 µM (inactive)
- GI50 (OVCAR-3): 3.06 µM (inactive)
- GI50 (OVCAR-4): 26.1 µM (inactive)
- GI50 (OVCAR-5): 6.85 µM (inactive)
- GI50 (OVCAR-8): 1.66 µM (inactive)
- GI50 (PC-3): 3.1 µM (inactive)
- GI50 (RXF 393): 4.45 µM (inactive)
- GI50 (SF-268): 3.47 µM (inactive)
- GI50 (SF-295): 3.21 µM (inactive)
- GI50 (SF-539): 0.615 µM (active)
- GI50 (SK-MEL-28): 7.41 µM (inactive)
- GI50 (SK-MEL-2): 3.01 µM (inactive)
- GI50 (SK-MEL-5): 1.95 µM (inactive)
- GI50 (SK-OV-3): 4.8 µM (inactive)
- GI50 (SN12C): 2.17 µM (inactive)
- GI50 (SNB-19): 3.06 µM (inactive)
- GI50 (SNB-75): 3.18 µM (inactive)
- GI50 (SW-620): 1.79 µM (inactive)
- GI50 (TK-10): 9.06 µM (inactive)
- GI50 (U-251): 1.43 µM (inactive)
- GI50 (UACC-257): 4.99 µM (inactive)
- GI50 (UACC-62): 6.35 µM (inactive)
- GI50 (UO-31): 6.05 µM (inactive)

SMILES: Cc1cc2c(cc1Cl)Sc1n[nH]c(=O)n1S2(=O)=O
- GI50 (786-0): > 100 µM (inactive)
- GI50 (A498): 19.4 µM (inactive)
- GI50 (A549): > 100 µM (inactive)
- GI50 (ACHN): > 100 µM (inactive)
- GI50 (BT-549): > 100 µM (inactive)
- GI50 (CAKI-1): > 100 µM (inactive)
- GI50 (CCRF-CEM): > 100 µM (inactive)
- GI50 (COLO 205): > 100 µM (inactive)
- GI50 (DU-145): > 100 µM (inactive)
- GI50 (EKVX): > 100 µM (inactive)
- GI50 (HCC 2998): > 100 µM (inactive)
- GI50 (HCT-116): > 100 µM (inactive)
- GI50 (HCT-15): > 100 µM
- GI50 (HL-60): > 100 µM (inactive)
- GI50 (HOP-62): > 100 µM (inactive)
- GI50 (HOP-92): 54.3 µM (inactive)
- GI50 (HT-29): > 100 µM (inactive)
- GI50 (Hs-578T): > 100 µM (inactive)
- GI50 (IGROV-1): > 100 µM (inactive)
- GI50 (K562): > 100 µM (inactive)
- GI50 (KM12): > 100 µM (inactive)
- GI50 (LOX IMVI): > 100 µM (inactive)
- GI50 (M14): > 100 µM (inactive)
- GI50 (MCF7): > 100 µM (inactive)
- GI50 (MDA-MB-231): > 100 µM (inactive)
- GI50 (MDA-MB-435): > 100 µM (inactive)
- GI50 (MDA-N): > 100 µM (inactive)
- GI50 (MOLT-4): > 100 µM (inactive)
- GI50 (Malme-3M): 40.6 µM (inactive)
- GI50 (NCI-H226): > 100 µM (inactive)
- GI50 (NCI-H23): > 100 µM (inactive)
- GI50 (NCI-H460): > 100 µM (inactive)
- GI50 (NCI-H522): 87.5 µM (inactive)
- GI50 (NCI/ADR-RES): > 100 µM (inactive)
- GI50 (OVCAR-3): 95.5 µM (inactive)
- GI50 (OVCAR-4): > 100 µM (inactive)
- GI50 (OVCAR-5): > 100 µM (inactive)
- GI50 (OVCAR-8): > 100 µM (inactive)
- GI50 (PC-3): > 100 µM (inactive)
- GI50 (SF-268): > 100 µM (inactive)
- GI50 (SF-295): > 100 µM (inactive)
- GI50 (SF-539): > 100 µM (inactive)
- GI50 (SK-MEL-28): > 100 µM (inactive)
- GI50 (SK-MEL-5): 35.8 µM (inactive)
- GI50 (SK-OV-3): > 100 µM (inactive)
- GI50 (SN12C): > 100 µM (inactive)
- GI50 (SNB-19): > 100 µM (inactive)
- GI50 (SNB-75): > 100 µM (inactive)
- GI50 (SW-620): > 100 µM (inactive)
- GI50 (TK-10): > 100 µM (inactive)
- GI50 (U-251): > 100 µM (inactive)
- GI50 (UACC-257): > 100 µM (inactive)
- GI50 (UACC-62): > 100 µM (inactive)
- GI50 (UO-31): > 100 µM (inactive)

— ChEMBL document CHEMBL1201862, “PubChem BioAssay data set” (2004)
